Patent US10548894B2, “Combination therapy” (Array BioPharma Inc., priority 2013, dated 2020)
pIC50: −log10 of the molar value.

Experiments:
WM-266-4 cells = assay: ATP-based CTG (Cell Titer Glo) cell viability assay, 72 h; conditions: Homo sapiens, WM-266-4 parent, single agent
Protocol: (§1) Compound stocks are prepared in DMSO at a final concentration of 10 mM. Working stocks are serially diluted in the appropriate cell culture medium in 3-fold increments to achieve final assay concentrations ranging from 2.7 μM to 1.2 nM.
(§2) A-375 and WM-266-4 cells were purchased from American Type Culture Collection (ATCC). The A-375 cells were cultured in DMEM medium (ATCC) and the WM-266-4 cells were cultured in EMEM medium (ATCC) both supplemented with 10% fetal bovine serum (Gibco) and incubated at 37° C./5% CO2. The cell lines engineered to express commonly occurring alleles indicative of resistance were acquired from Novartis-Emeryville. These resistant models include, A-375 cells expressing mutant MEK1P124L, truncated p61-BRAFV600E, or mutant NRASQ61K, and WM-266-4 cells expressing mutant MEK1C121S, truncated p61-BRAFV600E, or mutant NRASQ61K. These cells were cultured in the appropriate parental medium with selection marker G418 and in the presence of 5 uM LFE158 (MEK mutants) or LIH720 (truncated p61-BRAFV600E).
(§3) For screening, cells were seeded in 80 ul of medium in 384-well plates (Thermo Scientific, cat#4332) at 500 (A-375) or 750 (WM-266-4) cell densities per well using a MultiDrop Combi (Thermo-Fisher) with an 8-channel standard cassette. To promote an even distribution of cells across the entire well, cells were briefly centrifuged at 1000 RPM and incubated at room temperature 30 minutes. All plates were incubated at 37° C., 5% CO2 for 24 h prior to compound addition. Compound stock was freshly prepared in the appropriate culture medium, and added using a PAA robot equipped with a 200n1 pin tool. In a minimum of three replicate wells, single agent and combination effects after 72 hours, were assessed by both quantification of cellular ATP levels via Cell Titer Glo (Promega) according to the manufacturer's protocol and by microscopy imaging. For imaging, cells were fixed to the plates and permeabilized with a solution of 10% PFA, 0.3% TX-100 in PBS via a WellMate dispenser with controlled dispensing speeds. Cell nuclei were stained with Hoechst 33342 (H3570, Invitrogen), and all necessary washing steps were performed by a BioTek washer.
(§4) Data comprised triplicate measurements for each treatment (compound) condition, 42 replicates of DMSO-treated wells, and duplicates of Staurosporin-treated wells. The data was normalized to the median of the DMSO measurements and summarized by calculating the median of the triplicates. Data was imported into Chalice to calculate compound synergies.

[1] = tested on: A-375 cells expressing mutant MEK1P124L; assay: as above; conditions: Homo sapiens, A-375 MEK1P124L, single agent
Protocol: as §1, §2, §3, §4

[2] = tested on: WM-266-4 cells expressing mutant MEK1C121S; assay: as above; conditions: Homo sapiens, WM-266-4 MEK1C121S, single agent
Protocol: as §1, §2, §3, §4

A-375 cells = assay: as above; conditions: Homo sapiens, A-375 parent, single agent
Protocol: as §1, §2, §3, §4

[3] = tested on: A-375 cells expressing mutant NRASQ61K; assay: as above; conditions: Homo sapiens, A-375 NRASQ61K, single agent
Protocol: as §1, §2, §3, §4

[4] = tested on: A-375 cells expressing truncated p61-BRAFV600E; assay: Microscopy imaging assay (viable nuclei count), 72 h; assay type: cell-based; conditions: Homo sapiens, A-375 p61 BRafV600E, single agent
Protocol: (§5) Compound stocks are prepared in DMSO at a final concentration of 10 mM.
as §2
as §3, with “For imaging, cells were fixed to the plates and permeabilized with a solution of 10% PFA, 0.3% TX-100 in PBS via a WellMate dispenser with controlled dispensing speeds. Cell nuclei were stained with Hoechst 33342 (H3570, Invitrogen), and all necessary washing steps were performed by a BioTek washer.” left out
(§6) An automated image analysis pipeline was established using custom-made scripts in the open-source, statistical programming language R, and functions of the BioConductor package EBImage. The goal was to quantify the number of viable nuclei (cells) per well as an approximation for cell viability. […]

[5] = tested on: WM-266-4 cells expressing mutant NRASQ61K; assay: as above; assay type: cell-based; conditions: Homo sapiens, WM-266-4 NRASQ61K, single agent
Protocol: as §5, §2
as §3, with “For imaging, cells were fixed to the plates and permeabilized with a solution of 10% PFA, 0.3% TX-100 in PBS via a WellMate dispenser with controlled dispensing speeds. Cell nuclei were stained with Hoechst 33342 (H3570, Invitrogen), and all necessary washing steps were performed by a BioTek washer.” left out
as §6

[6] = tested on: WM-266-4 cells expressing truncated p61-BRAFV600E; assay: as above; assay type: cell-based; conditions: Homo sapiens, WM-266-4 p61 BRafV600E, single agent
Protocol: as §5, §2
as §3, with “For imaging, cells were fixed to the plates and permeabilized with a solution of 10% PFA, 0.3% TX-100 in PBS via a WellMate dispenser with controlled dispensing speeds. Cell nuclei were stained with Hoechst 33342 (H3570, Invitrogen), and all necessary washing steps were performed by a BioTek washer.” left out
as §6

COLO 205 = assay: 72 hr cell titer Glo proliferation assay, BRAFV600E mutant CRC cell lines; assay type: cell-based; conditions: Homo sapiens, COLO 205, single agent
Protocol: (§7) Single agent and combinatorial effects on proliferation of inhibitors of RAF (Compound of Formula (I)) and PIK3Ca (Compound X) kinases in seven BRAF-mutant CRC-derived cell lines. All cell lines express the BRAFV600E protein. Cells harboring known or putative activating mutations in the PI3Kα gene are marked with a (*) and cells with PTEN loss marked with a (#). Cell proliferation was measured in 72 hr cell titer Glo™ assays and all results supplied are the result of at least triplicate measurements. Shown are single agent IC50 values for the Compound of Formula (I) and Compound X. Synergy score (SS) measurements as well as the combination index (C150) at the 50% effect level are given for each combination) in Table 6. Interactions were deemed synergistic when SS values were ≥2.0 and CI values were ≤0.5. Interactions were deemed additive/synergistic when either SS values were ≥2.0 but CI values were >0.5 or SS values were <2.0 but CI values were ≤0.5. Interactions where termed additive when SS values were <2.0 and CI values were >0.5. Synergy calls are given in the “effect description” columns.

RKO = assay: as above; assay type: cell-based; conditions: Homo sapiens, RKO (PI3Kα mutation), single agent
Protocol: as §7

SW1417 = assay: as above; assay type: cell-based; conditions: Homo sapiens, SW1417, single agent
Protocol: as §7

SNU-C5 = assay: as above; assay type: cell-based; conditions: SNU-C5 (PI3Kα mutation), single agent
Protocol: as §7

HT-29 = assay: as above; assay type: cell-based; conditions: Homo sapiens, HT-29 (PI3Kα mutation), single agent
Protocol: as §7

LS411N = assay: as above; assay type: cell-based; conditions: Homo sapiens, LS-411N, single agent
Protocol: as §7

`COC(=O)N[C@@H](C)CNc1nccc(-c2cn(C(C)C)nc2-c2cc(Cl)cc(NS(C)(=O)=O)c2F)n1` [Compound of Formula (I)] showed a pIC50 (WM-266-4 cells) of 8.70, a pIC50 [1] of 6.48 and a pIC50 [2] of 7.46. For the same compound, the pIC50 (A-375 cells) was 8.40, the pIC50 [3] was 6.87 and the pIC50 [4] was 6.07. It also gave a pIC50 [5] of 6.06, a pIC50 [6] of 6.03 and a pIC50 (COLO 205) of 8.30. It also gave a pIC50 (RKO) of 5.71, a pIC50 (SW1417) of 6.63 and a pIC50 (SNU-C5) of under 5.57. The pIC50 (HT-29) was 7.31 and the pIC50 (LS411N) was 7.74.
